Results on five compounds are retold here after paper PMC7902330, “Pharmacokinetic study of traditional Japanese Kampo medicine shimotsuto used to treat gynecological diseases in rats” (Journal of Natural Medicines, 2021).

SMILES strings stand for the structures. Read-outs that look alike come from different tables or passages of the source.

The subject of one series is blood viscosity. Details: method as in PMID 28299338. The note with it: rat model; cited from earlier work.
Series [1] can be described thus: Pharmacokinetics of ingredients in rat plasma after oral administration of shimotsuto (targeted LC–MS/MS). Format: in vivo. An excerpt:
The plasma levels of nine ingredients were quantified using quantitative (targeted) analysis. Among them, seven ingredients (catalpol, paeoniflorin, albiflorin, senkyunolide A, butylphthalide, ferulic acid, and ligustilide) are candidate active ingredients in shimotsuto (Table 1). Two ingredients (bergapten and 8-debenzoylpaeoniflorin) are shimotsuto ingredients which were detected and identified in shimotsuto-treated rat plasma using nontargeted LC–HRMS analysis. The nine ingredients were quantified by collecting plasma samples at 0–24 h after shimotsuto administration, pretreating with the following procedures, and then analyzing by targeted LC–MS/MS using selected reaction-monitoring mode. The LC–MS/MS system was composed of a triple quadruple MS (TripleQuad6500; SCIEX, Framingham, MA, USA) and an Agilent 1290 Infinity LC system (Agilent Technologies, Santa Clara, CA, USA). For highly sensitive and selective quantitative (targeted) analysis of each compound, we preliminarily examined optimal pretreatment and analytical LC–MS/MS methods (e.g., MS parameters and LC conditions).
For quantification of catalpol, paeoniflorin, albiflorin, ferulic acid, and senkyunolide A in plasma, 100 µL of plasma sample was mixed with 20 µL of methanol (or working solution) and 20 µL of internal standard (niflumic acid or swertiamarin) and pretreated by deproteinization using 500 µL of acetonitrile. […] Finally, the dried residue was dissolved in 60 µL of the specific HPLC mobile phase used for analysis and then a 10 μL aliquot was injected into the LC–MS/MS system.
For quantification of ligustilide and butylphthalide in plasma, 200 µL of plasma sample was mixed with 40 µL of methanol (or working solution) and 40 µL of internal standard (imperatorin) and centrifuged at 15000×g for 10 min at 4 °C, the whole volume of supernatant was collected and subsequently pretreated by solid-phase extraction using Oasis HLB Extraction Cartridge (Waters, Milford, MA, USA). The acetonitrile elutes were collected and then dried under a steam of nitrogen gas. Finally, the dried residue was dissolved in 70 µL of the specific HPLC mobile phase and injected 20 µL into the LC–MS/MS system.
For quantification of bergapten in plasma, 100 µL of plasma sample was mixed with 20 µL of methanol (or working solution) and 20 µL of internal standard (niflumic acid) and pretreated by solid-phase extraction using an Oasis HLB 96-well µElution plate. Next, the mixied elutes of acetonitrile and isopropyl alcohol (1:1, v/v) were collected and then dried under a steam of nitrogen gas. Finally, the dried residue was dissolved in 60 µL of the specific HPLC mobile phase and injected 10 µL into the LC–MS/MS system.
For quantification of 8-debenzoylpaeoniflorin in plasma, 100 µL of plasma sample was mixed with 20 µL of methanol (or working solution) and 20 µL of internal standard (niflumic acid) and pretreated by liquid–liquid extraction using 500 µL of ethyl acetate. […] The dried residue was dissolved in 60 µL of the specific HPLC mobile phase and injected 10 µL into the LC–MS/MS system.
In addition, pharmacokinetic parameters of the shimotsuto ingredients detected in the plasma, such as the maximum concentration (Cmax) and area under the plasma level–time curve (AUC0−last), were calculated by noncompartmental moment analysis using Phoenix WinNonlin software (Certara L.P., St. Louis, MO, USA).

The target in a further series is T1, human TRPV4 (Homo sapiens, UniProt Q9HBA0).
T1 construct: The full length of each of human transient receptor potential ankyrin 1 (TRPA1); expressed in transfected cells
The series can be described thus: Ca2+ influx assay for TRP channel agonistic activity in T-REx-293 cells. Format: cell-based. The following applies: 10 µmol/L test ingredient, positive control 4 µmol/L GSK1016790A, read-out: % Activation compared to positive control, TRPV4. An excerpt: (§1) The full length of each of human transient receptor potential ankyrin 1 (TRPA1), transient receptor potential cation channel subfamily V member 1 (TRPV1), transient receptor potential cation channel subfamily V member 4 (TRPV4), and transient receptor potential cation channel subfamily M member 8 (TRPM8) coding region was introduced into a pcDNA4/TO vector (Thermo Fisher Scientific, Waltham, MA, USA) and transfected into T-REx-293 cells (Thermo Fisher Scientific) to obtain stable cell lines expressing human TRPA1, TRPV1, TRPV4, and TRPM8. Next, the cells were cultured in Dulbecco’s Modified Eagle Medium containing 10% fetal bovine serum (FBS), 4 mM L-glutamine, and penicillin/streptomycin.
(§2) First, cells were suspended in culture medium with 1 µg/mL of tetracycline and seeded on a poly-D-lysine-coated 96-well plate at a density of 2.5 × 10^4 cells/well overnight. Next, the cells were used for Ca^2+ influx assay, as described previously with minor modifications, using a FLIPR Calcium 5 Assay Kit (Molecular Devices, San Jose, CA, USA). Briefly, cells were incubated in 80 µL of a Ca^2+-chelating dye dissolved in assay buffer at pH 7.4 (Hanks’ Balanced Salt Solution containing 20 mmol/L of 4-(2-hydroxyethyl)-1-piperazineethanesulfonic acid [HEPES]) for 30 min at room temperature. Next, the plates were assayed in a FlexStation 3 microplate reader (Molecular Devices). The fluorescence intensity was traced entirely for 80 s, and the fluorescence baseline was measured 20 s before application of 20 µL of the test compound (final concentration = 10 µmol/L). The response was expressed as percentage activation as follows:
(§3) Relative fluorescence units (RFU) (% activation) = ([RFUmax − RFUbaseline]/RFUbaseline) × 100
(§4) The activity of each test compound against TRPA1, TRPV1, TRPV4, and TRPM8 was represented as the relative enhancement of the Ca^2+ influx of each positive control as follows: 20 µmol/L of allyl isothiocyanate (TRPA1 agonist), 2 µmol/L of capsaicin (TRPV1 agonist), 4 µmol/L of GSK1016790A (TRPV4 agonist), and 20 µmol/L of icilin (TRPM8 agonist). The dose–response curve was fitted to the sigmoidal dose–response equation (Top: maximum response of each compound), and EC50 was calculated using GraphPad prism 7 software (GraphPad, San Diego, CA, USA).
(§5) Calcium ion influx into TRPA1-, TRPV1-, TRPV4-, or TRPM8-expressing T-REx-293 cells was measured to evaluate the agonistic effect of shimotsuto ingredients on TRP channels. The action of 10 µmol/L of each test ingredient was represented as the relative enhancement of the Ca^2+ influx of each positive control, indicated as follows: 20 µmol/L each of allyl isothiocyanate (TRPA1 agonist), 2 µmol/L capsaicin (TRPV1 agonist), 4 µmol/L GSK1016790A (TRPV4 agonist), and 20 µmol/L icilin (TRPM8 agonist). Dose–response tests of shimotsuto ingredients against TRPA1 were performed to calculate EC50.

A further series has as its target T2, human TRPA1 (Homo sapiens, UniProt O75762).
T2 construct: The full length of each of human transient receptor potential ankyrin 1 (TRPA1); expressed in transfected cells
Described as above. Format: cell-based. The note with it: for activation at 10 µM: T-REx-293, 10 µmol/L test ingredient, positive control 20 µmol/L allyl isothiocyanate, read-out: % Activation compared to positive control, TRPA1; for Activation of TRPA1 (in words): TRP stable expression cell lines.
Text: as §1, §2, §3, §4, §5

The target in a further series is T3, human TRPV1 (Homo sapiens, UniProt Q8NER1).
T3 construct: The full length of each of human transient receptor potential ankyrin 1 (TRPA1), transient receptor potential cation channel subfamily V member 1 (TRPV1); expressed in transfected cells
Described as above. Format: cell-based. The following applies: 10 µmol/L test ingredient, positive control 2 µmol/L capsaicin, read-out: % Activation compared to positive control, TRPV1.
Text: as §1, §2, §3, §4, §5

The next series concerns the target T4, human TRPM8 (Homo sapiens, UniProt Q7Z2W7).
T4 construct: The full length of each of human transient receptor potential ankyrin 1 (TRPA1); expressed in transfected cells
Described as above. Format: cell-based. The note with it: 10 µmol/L test ingredient, positive control 20 µmol/L icilin, read-out: % Activation compared to positive control, TRPM8.
Text: as §1, §2, §3, §4, §5

Series [2] can be described thus: Plasma levels of catalpol in humans after goshajinkigan administration (unpublished data). Format: in vivo, human. The note with it: after goshajinkigan (including Rehmanniae Radix) administration.
The conditions of series [3]: cited from earlier work.
On the set-up of series [4]: method as in PMID 31514313. The following applies: ref 18; cited from earlier work.
Series [5] concerns transient receptor potential ankyrin 1 (TRPA1). Details: method as in PMID 21894528. The note with it: ref 15; cited from earlier work.
On the set-up of series [6]: method as in PMID 8932691. The following applies: cited from earlier work.

T1 sequence (Q9HBA0 whole entry): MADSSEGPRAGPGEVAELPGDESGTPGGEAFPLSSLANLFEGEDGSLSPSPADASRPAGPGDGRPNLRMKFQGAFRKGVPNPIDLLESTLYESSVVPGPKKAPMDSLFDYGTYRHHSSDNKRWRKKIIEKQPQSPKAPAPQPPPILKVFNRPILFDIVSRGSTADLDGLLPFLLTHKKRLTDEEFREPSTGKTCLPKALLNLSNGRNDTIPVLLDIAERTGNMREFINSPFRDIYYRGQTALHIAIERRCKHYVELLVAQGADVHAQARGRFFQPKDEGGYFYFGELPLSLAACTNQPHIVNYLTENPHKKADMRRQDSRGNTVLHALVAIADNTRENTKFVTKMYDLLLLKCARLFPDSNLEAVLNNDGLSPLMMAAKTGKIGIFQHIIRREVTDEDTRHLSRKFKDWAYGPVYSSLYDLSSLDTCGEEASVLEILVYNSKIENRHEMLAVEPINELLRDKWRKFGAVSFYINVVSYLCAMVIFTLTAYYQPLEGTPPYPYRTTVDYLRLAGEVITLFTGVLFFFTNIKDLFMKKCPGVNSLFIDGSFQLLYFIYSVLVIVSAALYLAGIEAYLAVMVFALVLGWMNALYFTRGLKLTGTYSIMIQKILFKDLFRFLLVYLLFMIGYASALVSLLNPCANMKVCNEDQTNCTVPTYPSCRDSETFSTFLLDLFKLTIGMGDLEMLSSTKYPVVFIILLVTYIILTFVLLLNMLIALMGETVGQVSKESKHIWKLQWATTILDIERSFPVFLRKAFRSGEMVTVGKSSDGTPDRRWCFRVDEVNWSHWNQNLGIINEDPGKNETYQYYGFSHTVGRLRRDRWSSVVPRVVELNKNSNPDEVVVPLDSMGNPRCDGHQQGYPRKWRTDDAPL
T4 sequence (Q7Z2W7 whole entry): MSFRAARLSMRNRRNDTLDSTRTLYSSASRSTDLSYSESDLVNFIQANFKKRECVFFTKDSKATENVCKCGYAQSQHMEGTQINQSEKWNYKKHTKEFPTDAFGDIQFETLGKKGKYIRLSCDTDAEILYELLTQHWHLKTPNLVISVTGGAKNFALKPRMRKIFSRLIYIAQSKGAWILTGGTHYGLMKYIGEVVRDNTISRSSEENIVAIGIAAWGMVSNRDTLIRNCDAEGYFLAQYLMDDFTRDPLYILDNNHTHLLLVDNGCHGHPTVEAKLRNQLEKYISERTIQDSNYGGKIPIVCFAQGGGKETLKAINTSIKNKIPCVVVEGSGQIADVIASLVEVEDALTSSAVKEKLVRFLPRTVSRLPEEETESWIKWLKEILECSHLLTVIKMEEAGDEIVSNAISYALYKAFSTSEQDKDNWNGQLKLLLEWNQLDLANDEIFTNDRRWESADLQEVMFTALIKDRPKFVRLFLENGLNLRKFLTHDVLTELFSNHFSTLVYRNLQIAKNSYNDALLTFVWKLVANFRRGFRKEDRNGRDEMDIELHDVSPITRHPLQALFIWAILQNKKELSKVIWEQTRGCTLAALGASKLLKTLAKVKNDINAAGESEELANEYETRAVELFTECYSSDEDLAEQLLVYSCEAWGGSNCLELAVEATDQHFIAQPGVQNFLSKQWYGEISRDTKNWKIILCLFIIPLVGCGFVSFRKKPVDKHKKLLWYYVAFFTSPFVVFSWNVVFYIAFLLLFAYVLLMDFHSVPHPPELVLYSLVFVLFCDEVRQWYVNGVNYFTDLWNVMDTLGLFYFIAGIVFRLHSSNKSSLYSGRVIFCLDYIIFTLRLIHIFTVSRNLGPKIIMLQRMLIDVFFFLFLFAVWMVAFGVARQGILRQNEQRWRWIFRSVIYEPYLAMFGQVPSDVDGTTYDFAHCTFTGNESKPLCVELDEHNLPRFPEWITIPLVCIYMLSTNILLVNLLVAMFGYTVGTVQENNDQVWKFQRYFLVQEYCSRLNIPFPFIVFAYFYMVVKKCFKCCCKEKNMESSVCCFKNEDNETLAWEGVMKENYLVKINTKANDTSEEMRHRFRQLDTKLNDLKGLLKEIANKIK
T3 sequence (Q8NER1 whole entry): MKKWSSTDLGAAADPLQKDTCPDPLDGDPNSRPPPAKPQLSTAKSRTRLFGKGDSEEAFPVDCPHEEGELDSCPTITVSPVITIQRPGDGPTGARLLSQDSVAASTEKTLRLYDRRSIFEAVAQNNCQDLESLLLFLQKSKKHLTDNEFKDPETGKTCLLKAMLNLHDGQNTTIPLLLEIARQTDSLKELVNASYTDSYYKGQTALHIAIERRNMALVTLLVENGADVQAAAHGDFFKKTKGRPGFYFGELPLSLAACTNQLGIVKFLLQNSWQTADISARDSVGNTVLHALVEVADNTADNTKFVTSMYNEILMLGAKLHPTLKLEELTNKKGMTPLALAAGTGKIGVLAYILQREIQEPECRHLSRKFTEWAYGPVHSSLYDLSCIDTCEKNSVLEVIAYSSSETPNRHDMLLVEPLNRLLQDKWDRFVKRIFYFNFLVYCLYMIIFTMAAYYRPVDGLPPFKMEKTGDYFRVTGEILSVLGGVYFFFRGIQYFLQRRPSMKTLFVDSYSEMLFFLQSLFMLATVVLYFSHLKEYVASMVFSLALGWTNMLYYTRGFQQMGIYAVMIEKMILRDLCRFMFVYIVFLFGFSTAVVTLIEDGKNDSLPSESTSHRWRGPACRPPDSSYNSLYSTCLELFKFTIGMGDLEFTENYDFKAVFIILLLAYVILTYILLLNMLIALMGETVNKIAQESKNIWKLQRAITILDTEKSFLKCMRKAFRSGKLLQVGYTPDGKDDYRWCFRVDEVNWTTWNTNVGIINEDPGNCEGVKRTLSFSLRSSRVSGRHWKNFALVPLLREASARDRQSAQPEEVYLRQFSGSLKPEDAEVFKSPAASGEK
T2 sequence (O75762 whole entry): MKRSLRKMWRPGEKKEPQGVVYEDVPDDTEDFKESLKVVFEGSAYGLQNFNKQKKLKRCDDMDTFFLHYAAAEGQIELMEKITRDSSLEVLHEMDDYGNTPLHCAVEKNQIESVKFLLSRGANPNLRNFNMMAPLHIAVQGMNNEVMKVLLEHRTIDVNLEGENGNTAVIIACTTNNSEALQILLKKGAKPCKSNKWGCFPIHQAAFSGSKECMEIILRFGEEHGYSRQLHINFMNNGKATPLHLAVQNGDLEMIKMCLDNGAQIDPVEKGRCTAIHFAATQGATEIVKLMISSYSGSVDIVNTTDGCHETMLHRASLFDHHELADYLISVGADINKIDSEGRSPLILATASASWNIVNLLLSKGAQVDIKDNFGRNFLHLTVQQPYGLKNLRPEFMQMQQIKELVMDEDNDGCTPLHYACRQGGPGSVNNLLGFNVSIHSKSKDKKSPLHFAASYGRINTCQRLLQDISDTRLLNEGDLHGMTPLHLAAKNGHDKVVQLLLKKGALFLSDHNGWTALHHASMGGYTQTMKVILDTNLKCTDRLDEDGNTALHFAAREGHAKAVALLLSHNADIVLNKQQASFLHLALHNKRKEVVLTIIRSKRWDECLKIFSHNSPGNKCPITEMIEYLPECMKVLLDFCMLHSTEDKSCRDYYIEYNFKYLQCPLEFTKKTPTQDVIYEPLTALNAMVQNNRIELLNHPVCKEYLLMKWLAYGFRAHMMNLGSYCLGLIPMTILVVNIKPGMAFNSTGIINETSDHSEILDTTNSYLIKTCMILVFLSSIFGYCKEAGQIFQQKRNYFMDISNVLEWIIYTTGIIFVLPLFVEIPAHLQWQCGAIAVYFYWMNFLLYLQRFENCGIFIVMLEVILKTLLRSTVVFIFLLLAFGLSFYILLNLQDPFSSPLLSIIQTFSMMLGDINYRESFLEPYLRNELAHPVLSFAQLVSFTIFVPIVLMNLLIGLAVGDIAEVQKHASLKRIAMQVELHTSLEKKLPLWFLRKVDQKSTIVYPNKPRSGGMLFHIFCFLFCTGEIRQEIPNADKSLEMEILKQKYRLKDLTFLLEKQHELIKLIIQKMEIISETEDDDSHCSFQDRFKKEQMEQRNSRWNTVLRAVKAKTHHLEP

As a reminder, the AUC(0-t) is exposure summed from dosing to a finite time, without extrapolation to infinity. In general, Cmax refers to the peak of the concentration-time curve. As usually defined, the Tmax is the time from dosing to the highest level. In general, half-life refers to the time needed for the level to fall by half in the phase considered. Lower therefore signals fast loss. `CC12CC(O)C3CC1(OC1OC(CO)C(O)C(O)C1O)C3(COC(=O)c1ccccc1)C(=O)O2` (stereo not drawn) [Albiflorin]: the “Pharmacological action related to improvement of blood and the circulatory system” value (shortened to “Pharmacological action related”) in the series on blood viscosity was “Reduction of blood viscosity via antithrombotic effect in rat model [12]”. For the same compound, in [1] (rat, in vivo, po, 1 g/kg), the AUC(0-t) was determined as 0.0242 µg·h/mL, the peak level (Cmax) was 0.00634 µg/mL, the Tmax stood at 30 min and the half-life was 163 min. In addition, the activation at 10 µM on human TRPV4 was -1%. The activation at 10 µM on human TRPA1 came to 1%. The activation at 10 µM on human TRPV1 is 0%. On human TRPM8, the activation at 10 µM came out at 1%.

Regarding `OC[C@H]1O[C@@H](O[C@@H]2OC=C[C@H]3[C@H](O)[C@@H]4O[C@]4(CO)[C@@H]23)[C@H](O)[C@@H](O)[C@@H]1O` [Catalpol], the “Plasma levels in humans” value in series [2] is on record as “quite low”. Besides, the “Pharmacological action related” value in series [3] (ref 11) was “Protective effect on vascular endothelial function via multiple actions such as induction of serum nitric oxide [11]”. In [1] (rat, in vivo, po, 1 g/kg), the AUC(0-t) was 2.03 µg·h/mL, the Cmax worked out at 1.36 µg/mL, the Tmax worked out at 60 min and the half-life is 38.6 min. Moreover, on human TRPV4, the activation at 10 µM is 0%. Further, the activation at 10 µM at human TRPA1 turned out to be 2%. Further, the activation at 10 µM on human TRPV1 turned out to be 0%. For the same compound, at human TRPM8, the activation at 10 µM came to 3%. Also, the Absolute bioavailability in series [4] was 66.7%.

One may read the EC50 as the concentration that produces a half-maximal response. Turning to `CCC/C=C1\OC(=O)C2=C1CCC=C2` [Ligustilide], the “Pharmacological action related” value in series [3] (ref 8) is “vasorelaxation”; in series [3] (ref 13), “vasorelaxation and increased blood flow effects”; in series [5], “Activation of transient receptor potential ankyrin 1 (TRPA1; which plays a role in vasodilation)”. Also, the AUC(0-t) in series [1] (rat, in vivo, po, 1 g/kg) turned out to be 0.000916 µg·h/mL. Further, in [1] (rat, in vivo, po, 1 g/kg), the Cmax amounted to 0.00283 µg/mL. The Tmax in [1] (rat, in vivo, po, 1 g/kg) is 30 min. For the same compound, the activation at 10 µM is -1% on human TRPV4, 87% at human TRPA1, 0% on human TRPV1 and 18% at human TRPM8. In addition, the “Activation of TRPA1 (in words)” value at human TRPA1 was “potently activated”. The EC50 at human TRPA1 (dose–response test, Ca2+ influx, read-out: EC50 against TRPA1) stood at 1.3 µM.

Take `C[C@@]12C[C@@]3(O)O[C@@H](O1)[C@]1(COC(=O)c4ccccc4)[C@H]3C[C@@]12O[C@@H]1O[C@H](CO)[C@@H](O)[C@H](O)[C@H]1O` [Paeoniflorin]: the “Pharmacological action related” value in the series on blood viscosity is “Reduction of blood viscosity via antithrombotic effect in rat model [12]”. The Cumulative biliary excretion in series [6] (after oral administration of paeoniflorin, within 24 h) is reported as 1.3 % of the dose. Besides, the Bioavailability entry in series [6] (in rats) is listed as “low”. Also, the Tmax in series [1] (rat plasma, oral shimotsuto 1 g/kg, from mean concentration (n = 3) per time point) is 30 min. Moreover, the AUC(0-t) in series [1] (rat, in vivo, po, 1 g/kg) is 0.0836 µg·h/mL. The same compound yielded a Cmax in series [1] (rat, in vivo, po, 1 g/kg) of 0.0363 µg/mL. In addition, in series [1] (rat, in vivo, po, 1 g/kg), the half-life was 88.8 min. Besides, the activation at 10 µM was 0% on human TRPV4, 1% on human TRPA1, -1% on human TRPV1 and 0% on human TRPM8.

For the compound `CCCC[C@@H]1OC(=O)C2=C1CCC=C2` [Senkyunolide A], the “Pharmacological action related” value in series [3] (ref 8) was “Vasorelaxation”. In addition, the “Pharmacological action related” value in series [3] (ref 13) is “vasorelaxation and increased blood flow effects”. Further, in series [1] (rat, in vivo, po, 1 g/kg), the AUC(0-t) came out at 0.00804 µg·h/mL, the Cmax worked out at 0.0289 µg/mL and the Tmax is 15 min. In addition, the activation at 10 µM at human TRPV4 is 0%. Moreover, at human TRPA1, it took 1 µM to reach a half-maximal effect (EC50), the activation at 10 µM worked out at 86% and the “Activation of TRPA1 (in words)” value is listed as “potently activated”. In addition, the activation at 10 µM on human TRPV1 worked out at 1%. For the same compound, at human TRPM8, the activation at 10 µM is -1%.
